According to US20230114241A1, “METHODS OF TREATING EPILEPSY USING THE SAME” (Trevena, Inc., priority 2019, published 2023):

Tests used:
[1] = molecular target: T1, human sphingosine-1-phosphate receptor 1 (S1P1) (Homo sapiens, UniProt P21453); test: β-Arrestin2 recruitment assay (PathHunter), S1P1 CHO-K1 cells; assay type: cell-based; settings: for Emax: efficacy normalized to maximum efficacy of fingolimod, read-out: hS1P1 B-arrestin2 SPAN; for EC50: β-arrestin2 recruitment, read-out: hS1P1 B-arrestin2 pEC50 (converted)
Summary of the method: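 CHO-K1 cells co-expressing EA-β-arrestin2 and ProLink-tagged human S1P1 plated overnight, then stimulated 60 min at 37 °C. Enzyme-fragment complementation (β-galactosidase) detected after 1 h at room temperature by luminescence; values normalized to fingolimod.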
Target sequence in this assay (P21453 whole entry, the tested form may be a part): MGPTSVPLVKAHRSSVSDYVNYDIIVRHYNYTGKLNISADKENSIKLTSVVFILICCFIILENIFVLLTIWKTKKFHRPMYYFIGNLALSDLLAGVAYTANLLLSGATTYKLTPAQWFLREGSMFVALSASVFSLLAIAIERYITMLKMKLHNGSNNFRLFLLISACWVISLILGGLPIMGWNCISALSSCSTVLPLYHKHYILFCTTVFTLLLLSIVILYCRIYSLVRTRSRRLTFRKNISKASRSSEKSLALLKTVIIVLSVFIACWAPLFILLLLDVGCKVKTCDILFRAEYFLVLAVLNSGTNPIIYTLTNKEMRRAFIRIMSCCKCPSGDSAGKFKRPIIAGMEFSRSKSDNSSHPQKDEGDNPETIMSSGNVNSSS
Target sequence in this assay (P32121 whole entry partner, the tested form may be a part): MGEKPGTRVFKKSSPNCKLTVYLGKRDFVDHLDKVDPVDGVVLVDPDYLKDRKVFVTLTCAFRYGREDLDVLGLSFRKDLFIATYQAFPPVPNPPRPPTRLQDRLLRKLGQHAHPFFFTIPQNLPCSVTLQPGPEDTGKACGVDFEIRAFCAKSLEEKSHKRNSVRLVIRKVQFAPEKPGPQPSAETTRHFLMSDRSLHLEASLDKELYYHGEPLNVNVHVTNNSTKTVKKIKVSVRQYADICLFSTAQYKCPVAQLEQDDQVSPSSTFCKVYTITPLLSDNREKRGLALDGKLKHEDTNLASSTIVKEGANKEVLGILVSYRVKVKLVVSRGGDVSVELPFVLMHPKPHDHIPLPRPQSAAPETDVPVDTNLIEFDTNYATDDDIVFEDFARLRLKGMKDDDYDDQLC

[2] = molecular target: T1, human sphingosine-1-phosphate receptor 1 (S1P1); test: Inhibition of cAMP production (HTRF cAMP HiRange), S1P1 CHO-K1 cells; assay type: cell-based; settings: for Emax: CHO-K1, efficacy normalized to maximum efficacy of fingolimod, read-out: hS1P1 CAMP SPAN; for EC50: read-out: hS1P1 CAMP pEC50 (converted)
Summary of the method: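 CHO-K1 cells co-expressing human S1P1 (C-terminal ProLink tag) and EA-β-arrestin2, plated overnight; after 30 min compound incubation at 37 °C, intracellular cAMP measured by HTRF TR-FRET following 1 h at room temperature. Values normalized to fingolimod.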
Target sequence in this assay (P21453 whole entry, the tested form may be a part): as the sequence (P21453 whole entry, the tested form may be a part) above

[3] = inhibition of cAMP production, S1P1
[4] = CHO-K1, β-arrestin2 recruitment
[5] = inhibition of cAMP production, potency

Emax ([1]; CHO-K1) [%]	EC50 ([1]; S1P1) [nM]	Emax [2] [%]	EC50 [2, 3] [nM]	Emax [1, 4] [%]	EC50 ([1]; potency) [nM]	Emax ([2]; inhibition of cAMP production) [%]	EC50 [2, 5] [nM]	Compound
< 75	< 10000	> 75	> 316					Cc1ccccc1-c1cc(-c2ccc3c(c2)nnn3C(C)C)c[nH]1 [Compound 601, 5-[5-(2-methylphenyl)-1H-pyrrol-3-yl]-1-(propan-2-yl)-1H-1,2,3-benzotriazole]
				< 75	< 10000	> 75	> 316	CCC1(CC)CC(=O)c2cc(-c3nc(-c4cccc(C)c4)no3)ccc2O1 [Compound 225, 2,2-diethyl-6-(3-(m-tolyl)-1,2,4-oxadiazol-5-yl)chroman-4-one]
				> 75	> 10000	> 75	< 316	CC(C)n1nnc2cc(-c3noc(-c4cccc(F)c4)n3)ccc21 [Compound 64, 5-(3-fluorophenyl)-3-(1-isopropyl-benzotriazol-5-yl)-1,2,4-oxadiazole]
> 75	> 10000	> 75	> 316					CCc1ccccc1-c1nc(-c2ccc3c(c2)nnn3CC(C)(C)CO)no1 [Compound 527, 3-(5-(5-(2-ethylphenyl)-1,2,4-oxadiazol-3-yl)-1H-benzo[d][1,2,3]triazol-1-yl)-2,2-dimethylpropan-1-ol]
				< 75	> 10000	< 75	> 316	CSc1cccc(-c2nc(-c3ccc4c(c3)nnn4C3CCCC3)no2)c1 [Compound 47, 3-(1-cyclopentyl-1H-benzo[d][1,2,3]triazol-5-yl)-5-(3-(methylthio)phenyl)-1,2,4-oxadiazole]
				< 75	> 10000	< 75	> 316	CCCn1nnc2cc(-c3nc(-c4ccc(F)cc4)no3)ccc21 [Compound 5, 5-[3-(4-fluorophenyl)-1,2,4-oxadiazol-5-yl]-1-propyl-1H-1,2,3-benzotriazole]
> 75	> 10000	> 75	> 316					COc1ccccc1-c1noc(-c2ccc3c(c2)ncn3C(C)C)n1 [Compound 373, 5-(1-isopropyl-1H-benzo[d]imidazol-5-yl)-3-(2-methoxy-phenyl)-1,2,4-oxadiazole]
> 75	> 10000	> 75	> 316					CCC1(CC)CC(=O)c2cc(-c3nc(-c4cnc[nH]4)no3)ccc2O1 [Compound 466, 6-(3-(1H-imidazol-5-yl)-1,2,4-oxadiazol-5-yl)-2,2-diethylchroman-4-one]
< 75	> 10000	< 75	> 316					CN1C(=O)Cc2cc(-c3nc(-c4cccnc4)no3)ccc21 [Compound 377, 1-methyl-5-[3-(pyridin-3-yl)-1,2,4-oxadiazol-5-yl]-2,3-dihydro-1H-indol-2-one]
< 75	< 10000	< 75	> 316					CCC1(CC)CC(=O)c2cc(-c3noc(-c4ccc(NCC5CC5)c(C#N)c4)n3)ccc2O1 [Compound 444, 2-((cyclopropyl-methyl)amino)-5-(3-(2,2-diethyl-4-oxochroman-6-yl)-1,2,4-oxadiazol-5-yl)benzonitrile]
> 75	> 10000	> 75	> 316					COc1ccccc1-c1nc(-c2ccc3c(c2)nnn3CC(C)(C)CO)no1 [Compound 525, 3-(5-(5-(2-methoxy-phenyl)-1,2,4-oxadiazol-3-yl)-1H-benzo[d][1,2,3]triazol-1-yl)-2,2-dimethyl-propan-1-ol]
				< 75	< 10000	> 75	> 316	Cc1ccccc1-c1noc(-c2ccc3c(c2)CCC(=O)N3)n1 [Compound 365, 6-[3-(2-methylphenyl)-1,2,4-oxadiazol-5-yl]-1,2,3,4-tetrahydroquinolin-2-one]
< 75	< 10000	< 75	> 316					Cc1ccccc1-c1nsc(-c2ccc3c(ccn3C(C)C)c2)n1 [Compound 381, 5-[3-(2-methylphenyl)-1,2,4-thiadiazol-5-yl]-1-(propan-2-yl)-1H-indole]
				< 75	> 10000	< 75	> 316	O=C1CC2(CCC(F)(F)CC2)Oc2ccc(-c3nc(-c4ccncc4)no3)cc21 [Compound 217, 4′,4′-difluoro-6-[3-(pyridin-4-yl)-1,2,4-oxadiazol-5-yl]-3,4-dihydrospiro[1-benzopyran-2,1′-cyclohexane]-4-one]
< 75	< 10000	> 75	< 316					CCC1(CC)CC(=O)c2cc(-c3nc(-c4cncc(C)c4)no3)ccc2O1 [Compound 563, 2,2-diethyl-6-(3-(5-methylpyridin-3-yl)-1,2,4-oxadiazol-5-yl)chroman-4-one]
				> 75	< 10000	> 75	< 316	Cc1ccncc1-c1noc(-c2ccc3nnn(CC(C)C)c3c2)n1 [Compound 3, 1-(2-methylpropyl)-6-[3-(4-methylpyridin-3-yl)-1,2,4-oxadiazol-5-yl]-1H-1,2,3-benzotriazole]
				< 75	> 10000	< 75	> 316	Cc1cccc(-c2nc(-c3ccc4c(c3)nnn4C3CCCC3)no2)c1 [Compound 273, 3-(1-cyclopentyl-1H-benzo[d][1,2,3]triazol-5-yl)-5-(m-tolyl)-1,2,4-oxadiazole]

More lines, now with the values behind:

Compound	Emax ([1]; CHO-K1) [%]	EC50 ([1]; S1P1) [nM]	Emax [2] [%]	EC50 [2, 3] [nM]	Emax [1, 4] [%]	EC50 ([1]; potency) [nM]	Emax ([2]; inhibition of cAMP production) [%]	EC50 [2, 5] [nM]
CC(C)Cn1nnc2cc(-c3nc4c(Cl)cccc4o3)ccc21 [Compound 453, 4-chloro-2-(1-isobutyl-1H-benzo[d][1,2,3]triazol-5-yl)benzo[d]oxazole]	< 75		> 75	< 316				
N#Cc1cc(-c2nnc(-c3ccc4[nH]c(=O)oc4c3)o2)ccc1NCC(F)F [Compound 488, 2-[(2,2-difluoro-ethyl)amino]-5-[5-(2-oxo-2,3-dihydro-1,3-benzoxazol-6-yl)-1,3,4-oxadiazol-2-yl]benzonitrile]	> 75	< 10000	< 75	< 316				
Cn1cnc2cc(-c3nnc(-c4ccc(NCC(F)F)c(C#N)c4)o3)ccc21 [Compound 573, 2-[(2,2-difluoro-ethyl)amino]-5-[5-(1-methyl-1H-1,3-benzodiazol-5-yl)-1,3,4-oxadiazol-2-yl]benzonitrile]	< 75	> 10000	< 75	> 316				
Cc1cncc(-c2nc(-c3ccc4c(c3)nnn4C(C)C)no2)n1 [Compound 229, 3-(1-isopropyl-1H-benzo[d][1,2,3]triazol-5-yl)-5-(6-methyl-pyrazin-2-yl)-1,2,4-oxadiazole]					< 75	< 10000	< 75	> 316
COc1ccc(-c2nsc(-c3ccc4[nH]ccc4c3)n2)cc1 [Compound 363, 5-[3-(4-methoxyphenyl)-1,2,4-thiadiazol-5-yl]-1H-indole]					< 75	> 10000	< 75	> 316
Cc1ccncc1-c1nc(-c2ccc3c(c2)nnn3CC(C)(C)CO)no1 [Compound 541, 2,2-dimethyl-3-(5-(5-(4-methylpyridin-3-yl)-1,2,4-oxadiazol-3-yl)-1H-benzo[d] [1,2,3]triazol-1-yl)propan-1-ol]	< 75	> 10000	< 75	> 316				
CCC1(CC)CC(=O)c2cc(-c3ncc(-c4ccncc4)cn3)ccc2O1 [Compound 510, 2,2-diethyl-6-(5-(pyridin-4-yl)pyrimidin-2-yl)chroman-4-one]	> 75	< 10000	< 75	< 316				
Cc1cn(C)nc1-c1noc(-c2ccc3c(c2)nnn3CC(C)(C)O)n1 [Compound 518, 1-{5-[3-(1,4-dimethyl-1H-pyrazol-3-yl)-1,2,4-oxadiazol-5-yl]-1H-1,2,3-benzotriazol-1-yl}-2-methylpropan-2-ol]	< 75	> 10000	> 75	> 316				
COc1ccccc1-c1csc(-c2cnc3c(ccn3C(C)C)c2)n1 [Compound 401, 2-(1-isopropyl-1H-pyrrolo[2,3-b]pyridin-5-yl)-4-(2-methoxy-phenyl)thiazole]	< 75	> 10000	< 75	> 316				
CC(C)n1ccc2cc(-c3nc(-c4ccccc4F)ns3)ccc21 [Compound 374, 5-[3-(2-fluorophenyl)-1,2,4-thiadiazol-5-yl]-1-(propan-2-yl)-1H-indole]	< 75	> 10000	< 75	> 316				
COc1cc(-c2noc(-c3ccc4c(c3)nnn4C3CC3)n2)ccn1 [Compound 155, 1-cyclopropyl-5-[3-(2-methoxypyridin-4-yl)-1,2,4-oxadiazol-5-yl]-1H-1,2,3-benzotriazole]					< 75	> 10000	< 75	> 316
CC(C)n1nnc2cc(-c3noc(C4CCC4)n3)ccc21 [Compound 18, 5-(5-cyclobutyl-1,2,4-oxadiazol-3-yl)-1-(propan-2-yl)-1H-1,2,3-benzotriazole]					< 75	> 10000	< 75	> 316
